The text below walks through data of patent publication US20250332276A1, “Inhibitors of Molluscum Contagiosum Infection and Methods Using the Same” (priority 2022, published 2025).

SMILES strings stand for the structures. Read-outs that look alike come from different tables or passages of the source. *1 amine or outer side, *2 acyl side, *3 side chain or, on linkers, in order; H or OH if unused. Where a SMILES comes first, the peptide text is derived from it. The star is where a group is joined. X1 = CCC(C(=O)Nc1sc(C(=O)*)c(C)c1C(=O)OC)c1ccc(C(F)(F)F)cc1; Ethylenediamine = C(CN[*:2])N[*:1]; Boc = CC(C)(C)OC(=O)*

For data set [1], the target named is T1, mD4 (Molluscum contagiosum virus, UniProt Q98260). As to the kind of experiment: mD4 dependent processive DNA synthesis in vitro (mD4 anti-processivity). It is filed as biochemical.
T1 sequence (Q98260 1-226): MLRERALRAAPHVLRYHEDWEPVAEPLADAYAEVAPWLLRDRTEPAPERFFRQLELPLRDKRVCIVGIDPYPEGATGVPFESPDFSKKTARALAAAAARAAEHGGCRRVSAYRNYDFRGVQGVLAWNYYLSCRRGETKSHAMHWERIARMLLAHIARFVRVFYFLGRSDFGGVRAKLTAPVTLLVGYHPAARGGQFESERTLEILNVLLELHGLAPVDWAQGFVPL
For data set [2], the target named is T1, mD4. As to the kind of experiment: Micro-Scale Thermophoresis binding to mD4. As to conditions: microscale thermophoresis. For orientation: Microscale thermophoresis detects binding through changes in fluorescence in a small temperature gradient.
A further data set deals with mD4 (mD4+A20+Pol) (Molluscum contagiosum virus subtype 1, UniProt Q98260). As to the kind of experiment: biochemical.
Chain of mD4 (mD4+A20+Pol) (Q98260 1-226): as above
A short description of data set [3]: 3-Day Cell Viability Assay (cytotoxicity).
[4] abbreviates: Table 2, read-out: IC50 (μM), mD4 anti-processivity activity.

Usually IC50 stands for the point on the concentration scale where inhibition reaches its midpoint. Regarding `CCC(C(=O)Nc1sc(C(=O)NCCNC(=O)[C@@H](NC(=O)[C@@H](NC(=O)OC(C)(C)C)C(C)C)C(C)C)c(C)c1C(=O)OC)c1ccc(F)cc1` (stereo partly drawn) [Compound 5, Methyl 5-(((6S,9S)-6,9-diisopropyl-2,2-dimethyl-4,7,10-trioxo-3-oxa-5,8,11-triazatridecan-13-yl)carbamoyl)-2-(2-(4-fluorophenyl)butanamido)-4-methylthiophene-3-carboxylate], the IC50 at mD4 [1] (setting [4]) stood at 20 µM.

As for `CCC(C(=O)Nc1sc(C(=O)NCCNC(=O)[C@@H](NC(=O)[C@@H](NC(=O)[C@@H](NC(=O)OC(C)(C)C)C(C)C)C(C)C)C(C)C)c(C)c1C(=O)OC)c1ccc(F)cc1` (stereo partly drawn) [Compound 8, Methyl 2-(2-(4-fluorophenyl)butanamido)-4-methyl-S-(((6S,9S,12S)-6,9,12-triisopropyl-2,2-dimethyl-4,7,10,13-tetraoxo-3-oxa-5,8,11,14-tetraazahexadecan-16-yl)carbamoyl)thiophene-3-carboxylate], at mD4 [1] (setting [4]), the 50% inhibitory concentration (IC50) turned out to be 10.7 µM.

A word on the Kd: it is the concentration at which binding is half-saturated. High values mean weaker binding, low ones tighter binding. Broadly, the CC50 is the concentration that lowers cell viability or growth by half. As to `CCC(C(=O)Nc1sc(C(=O)NCCNC(=O)[C@@H](NC(=O)[C@@H](NC(=O)[C@@H](N)C(C)C)C(C)C)C(C)C)c(C)c1C(=O)OC)c1ccc(F)cc1` (stereo partly drawn) [Compound 9, Methyl 5-((2-((S)-2-((S)-2-((S)-2-amino-3-methylbutanamido)-3-methylbutanamido)-3-methylbutanamido)ethyl)carbamoyl)-2-(2-(4-fluorophenyl)butanamido)-4-methylthiophene-3-carboxylate], the Kd at mD4 [2] amounted to 2.84 µM. Also, the IC50 was 5 µM on mD4 [1] (read-out: IC50, mD4 dependent processive DNA synthesis in vitro) and 5.6 µM against mD4 (mD4+A20+Pol). The CC50 at 3 day in data set [3] is above 100 µM. The “cytotoxicity, result in words” value in data set [3] (cell viability assay or seen when evaluated in mD4-VV infection) is recorded as “no measurable cytotoxicity”. As to `CCC(C(=O)Nc1sc(C(=O)NCCNC(=O)[C@H](NC(=O)[C@H](NC(=O)[C@H](N)C(C)C)C(C)C)C(C)C)c(C)c1C(=O)OC)c1ccc(F)cc1` (stereo partly drawn) [Compound 20, Methyl 5-((2-((R)-2-((R)-2-((R)-2-amino-3-methylbutanamido)-3-methylbutanamido)-3-methylbutanamido)ethyl)carbamoyl)-2-(2-(4-fluorophenyl)butanamido)-4-methylthiophene-3-carboxylate], on mD4 [1] (setting [4]), the IC50 was found to be 3 µM. `CCC(C(=O)Nc1sc(C(=O)NCCNC(=O)[C@@H](NC(=O)[C@@H](NC(=O)[C@@H](NC(=O)[C@@H](NC(=O)OC(C)(C)C)C(C)C)C(C)C)C(C)C)C(C)C)c(C)c1C(=O)OC)c1ccc(C(F)(F)F)cc1` (stereo partly drawn) [Compound 26, Methyl 4-methyl-5-(((6S,9S,12S,15S)-6,9,12,15-tetraisopropyl-2,2-dimethyl-4,7,10,13,16-pentaoxo-3-oxa-5,8,11,14,17-pentaazanonadecan-19-yl)carbamoyl)-2-(2-(4-(trifluoromethyl)phenyl)butanamido)thiophene-3-carboxylate] (Boc-VVVV-{Ethylenediamine-X1}): the IC50 on mD4 [1] (setting [4]) is 4.1 µM. With `CC(C)[C@H](N)C(=O)N[C@H](C(=O)N[C@H](C(=O)O)C(C)C)C(C)C` [TriVal-Peptide Control, ((L)-Val)3, reference compound] (H-Val-Val-Val-OH), at mD4 (mD4+A20+Pol), the IC50 was above 100 µM.
